{"source": "paper PMC9485191", "about": "“The ERK5/NF-κB signaling pathway targets endometrial cancer proliferation and survival” (Cellular and Molecular Life Sciences, 2022)", "key": {"ARK1 (endometrial)": {"system": "ARK1 (endometrial)", "experiment": "cells", "set-up": "MTT reduction cytotoxicity assay in human tumour cell lines", "conditions": "48 h, MTT", "protocol": "(§1) Cell viability was determined by MTT (3-(4,5-dimethyl-2-thiazolyl)-2,5-diphenyl-2H-tetrazolium Blue, Sigma) reduction assay. For clonogenic assays, cells were seeded in 6-well plates, treated for 14 days and stained with 0.5% crystal violet solution. Colonies with > 40 cells were counted. Cell proliferation was measured by cell counting assay, using a TC10TM automated cell counter (Bio-Rad, Hercules, CA, USA) using Trypan Blue. Cell viability was also determined using a LIVE/DEAD viability/cytotoxicity kit assay (ThermoFisher), as reported before. The above results prompted us to investigate the anticancer activity of ERK5 inhibition in EC. To do so, we used the endometrioid cancer cell lines Ishikawa and AN3CA cells (that carry PTEN deficiency and P53 mutation), as well as the more clinically aggressive non-endometrioid serous adenocarcinoma cell line ARK1 (PI3KCA mutation). In cell viability assays, JWG-071 induced cytotoxicity in the three EC cell lines tested, with IC50 values ranging 2–3 µM. In fact, JWG-071 induced cytotoxicity in a wide panel of cancer cells, including prostate, cervical, neuroblastoma, and glioblastoma cancers (Supplementary Fig. 4)."}, "AN3CA (endometrial)": {"system": "AN3CA (endometrial)", "experiment": "cells", "set-up": "MTT reduction cytotoxicity assay in human tumour cell lines", "conditions": "Homo sapiens, AN3-CA; 48 h, MTT", "protocol": "as §1"}, "C4-2 (prostate)": {"system": "C4-2 (prostate)", "experiment": "cells", "set-up": "MTT reduction cytotoxicity assay in human tumour cell lines", "conditions": "48 h, MTT", "protocol": "as §1"}, "Hela (cervical)": {"system": "Hela (cervical)", "experiment": "cells", "set-up": "MTT reduction cytotoxicity assay in human tumour cell lines", "conditions": "Homo sapiens, HeLa; 48 h, MTT", "protocol": "as §1"}, "LN-18 (glioblastoma)": {"system": "LN-18 (glioblastoma)", "experiment": "cells", "set-up": "MTT reduction cytotoxicity assay in human tumour cell lines", "conditions": "Homo sapiens, LN-18; 48 h, MTT", "protocol": "as §1"}, "SH-SY5Y (neuroblastoma)": {"system": "SH-SY5Y (neuroblastoma)", "experiment": "cells", "set-up": "MTT reduction cytotoxicity assay in human tumour cell lines", "conditions": "Homo sapiens, SH-SY5Y; 48 h, MTT", "protocol": "as §1"}, "IMR-32 (neuroblastoma)": {"system": "IMR-32 (neuroblastoma)", "experiment": "cells", "set-up": "MTT reduction cytotoxicity assay in human tumour cell lines", "conditions": "Homo sapiens, IMR-32; 48 h, MTT", "protocol": "as §1"}, "Ishikawa (endometrial)": {"system": "Ishikawa (endometrial)", "experiment": "cells", "set-up": "MTT reduction cytotoxicity assay in human tumour cell lines", "conditions": "Homo sapiens, Ishikawa; 48 h, MTT", "protocol": "as §1"}, "ERK5 [1]": {"target": "T1, ERK5 (Homo sapiens, UniProt Q13164)", "T1 construct": "gene MAPK7", "T1 sequence (Q13164 2-816)": "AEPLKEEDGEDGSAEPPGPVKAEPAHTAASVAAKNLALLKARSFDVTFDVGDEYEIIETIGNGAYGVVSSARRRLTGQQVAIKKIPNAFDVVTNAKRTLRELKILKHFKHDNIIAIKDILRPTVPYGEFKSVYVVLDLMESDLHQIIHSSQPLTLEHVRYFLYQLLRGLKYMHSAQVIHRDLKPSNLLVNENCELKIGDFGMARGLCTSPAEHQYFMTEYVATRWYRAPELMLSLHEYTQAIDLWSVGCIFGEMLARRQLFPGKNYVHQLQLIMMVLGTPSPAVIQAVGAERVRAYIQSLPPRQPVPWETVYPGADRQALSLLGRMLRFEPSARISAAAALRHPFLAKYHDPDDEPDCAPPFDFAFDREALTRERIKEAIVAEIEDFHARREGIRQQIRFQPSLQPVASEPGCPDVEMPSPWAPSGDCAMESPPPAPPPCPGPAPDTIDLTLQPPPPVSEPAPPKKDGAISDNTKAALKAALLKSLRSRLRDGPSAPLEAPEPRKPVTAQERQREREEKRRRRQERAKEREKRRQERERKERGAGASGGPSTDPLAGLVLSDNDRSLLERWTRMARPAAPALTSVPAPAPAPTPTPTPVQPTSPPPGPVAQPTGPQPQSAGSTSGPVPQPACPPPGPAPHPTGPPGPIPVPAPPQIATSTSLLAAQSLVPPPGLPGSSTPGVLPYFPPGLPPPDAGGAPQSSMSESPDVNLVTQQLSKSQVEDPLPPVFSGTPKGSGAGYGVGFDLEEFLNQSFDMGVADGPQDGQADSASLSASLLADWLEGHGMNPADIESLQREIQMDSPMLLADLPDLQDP", "experiment": "in vitro (cell-free) kinase assay at […] ATP ([…] at […] ATP); supported by inhibition of EGF-induced ERK5 phosphorylation in cells", "type": "biochemical"}, "ERK5 [2]": {"target": "T1, ERK5", "experiment": "biochemical", "set-up": "radiometric 32P-ATP kinase assay, active ERK5, PIMtide substrate, p81 paper, Cherenkov counting", "conditions": "200 uM ATP", "text": "Gene silencing Validated siRNAs targeting NEMO were from Sigma (ref. EHU032271) and ThermoFisher (ref. AM51331). Scrambled (control) siRNA was from ThermoFisher. siRNAs were transfected into cells using Lipofectamine-2000, following the manufacturer’s recommended protocol. The vectors encoding two different shRNAs targeting ERK5 were from Sigma (TRCN0000010262/pLKO.1; TRCN0000010275/pLKO.1). Lentiviral production is detailed at Supplementary Materials and Methods. In vitro ERK5 kinase activity assay A 40 μL reaction mixture was prepared containing 200 ng of pure active ERK5 (1) and the indicated amount of inhibitor in 50 mM Tris-HCl, pH 7.5, 0.1 mM EGTA, 1 mM 2-mercaptoethanol. […] Assays were carried out for 20 min at 30°C, terminated by applying the reaction mixture onto p81 paper, and the incorporated radioactivity measured by Cherenkov counting. Most of the ERK5 inhibitors developed so far, including JWG-071, are type I competitive inhibitors that target the ATP-binding site. […] Taking in account that the homeostatic levels of intracellular ATP range from 0.5 to 5 mM [31], it is very likely that ERK5 competitive inhibitors (such as JWG-071) should require µM concentrations to displace ATP from the active site in cells. […]"}}}
{"smiles": "CCC(C)N1c2ccccc2C(=O)N(C)c2cnc(Nc3ccc(C(=O)N4CCC(N5CCN(C)CC5)CC4)cc3OC)nc21", "note": "(stereo not shown) [JWG-071]", "values": [{"measurement": "IC50", "setting": "ARK1 (endometrial)", "value": "2.7 ± 0.2", "unit": "µM"}, {"measurement": "IC50", "setting": "AN3CA (endometrial)", "value": "3.3 ± 0.6", "unit": "µM"}, {"measurement": "IC50", "setting": "C4-2 (prostate)", "value": "2.2 ± 0.3", "unit": "µM"}, {"measurement": "IC50", "setting": "Hela (cervical)", "value": "2.9 ± 0.7", "unit": "µM"}, {"measurement": "IC50", "setting": "LN-18 (glioblastoma)", "value": "2.9 ± 0.4", "unit": "µM"}, {"measurement": "IC50", "setting": "SH-SY5Y (neuroblastoma)", "value": "4.2 ± 1.4", "unit": "µM"}, {"measurement": "IC50", "setting": "IMR-32 (neuroblastoma)", "value": "1.9 ± 0.3", "unit": "µM"}, {"measurement": "IC50", "setting": "Ishikawa (endometrial)", "value": "3.2 ± 0.8", "unit": "µM"}, {"measurement": "IC50", "setting": "ERK5 [1]", "value": "~0.09", "unit": "µM"}, {"measurement": "IC50", "setting": "ERK5 [2]", "value": "0.572 ± 0.051", "unit": "µM"}]}
